test system: GM3; experiment: GM3 Elisa assay; format: cell-based; settings: 48 h, Table 1; B16-FO cells, 2 days with compound; read-out: IC50_uM_Mean
Protocol: B16-FO cells from ATCC (American Tissue Culture Collection) were grown in DMEM media (ATCC) with 10% Fetal Bovine Serum (Hyclone) and Pen/Step/Glutamine (Biowhittaker). 4000 cells per well were plated on collagen coated plates (BD) and allowed to attach for 6 hours in an incubator (37 degrees, 5% CO2). After 6 hours the compounds and controls were added to the wells, the plates mixed and returned to the incubator for 2 days. Day of assay the cells were fixed for 20 minutes with 1% formaldehyde and then washed with Tris Buffered Saline (TBS) 3 times, 150 μl of TBS was left in the wells and 50 μl of goat serum (Invitrogen) was added, the plates mixed and incubated for 1 hour at room temperature. The plates were flicked and the cells incubated with the monoclonal Antibody to GM3 (NeuAc) (Cosmo) for 45 minutes as room temperature. The plates were then washed 3 times with TBS, leaving 150 μl of TBS in the wells and Peroxidase AffinPure F (ab′) 2 frag Gt Anti-mouse IgM, μ Chain Specific (Jackson Immuno Research) was added in 50 μl, the plates mixed and incubated for 45 minutes at room temperature. The plates were washed 3 times with TBS, flicked and blotted and 100 μl of Quantablu (Pierce) was added to the wells and incubated for 1 hour then read on a Fluorometer at Ex 325 and Em 420. The data was then analyzed using standard programs.

IC50 [nM]	SMILES
≤ 100	COc1cccc(CNC(=O)N[C@H](CN2CCCC2)[C@H](O)c2ccc3c(c2)OCCO3)c1 [Compound 80, 1-((1R,2R)-1-(2,3-dihydrobenzo[β][1,4]dioxin-6-yl)-1-hydroxy-3-(pyrrolidin-1-yl)propan-2-yl)-3-(3-methoxybenzyl)urea]
≤ 100	O=C(CCCc1nc2ccccc2s1)N[C@H](CN1CCCC1)[C@H](O)c1ccc2c(c1)OCCO2 [Compound 101, 4-(benzo[d]thiazol-2-yl)-N-((1R,2R)-1-(2,3-dihydrobenzo[1,4]dioxin-6-yl)-1-hydroxy-3-(pyrrolidin-1-yl)propan-2-yl)butanamide]
100 to 1000	CC(C)(C)c1ccc(C(=O)CCCCCC(=O)N[C@H](CN2CCCC2)[C@H](O)c2ccc3c(c2)OCCO3)cc1 [Compound 160, 7-(4-tert-butylphenyl)-N((1R,2R)-1-(2,3-dihydrobenzo[β][1,4]dioxin-6-yl)-1-hydroxy-3-(pyrrolidin-1-yl)propan-2-yl)-7-oxoheptanamide]
≤ 100	CC(C)Oc1ccc(C(=O)CCC(=O)N[C@H](CN2CCCC2)[C@H](O)c2ccc3c(c2)OCCO3)cc1 [Compound 162, N-((1R,2R)-1-(2,3-dihydrobenzo[β][1,4]dioxin-6-yl)-1-hydroxy-3-(pyrrolidin-1-yl)propan-2-yl)-4-(4-isopropoxyphenyl)-4-oxobutanamide]
≤ 100	O=C(CCC(=O)c1ccc(C(F)(F)F)cc1)N[C@H](CN1CCCC1)[C@H](O)c1ccc2c(c1)OCCO2 [Compound 176, N-((1R,2R)-1-(2,3-dihydrobenzo[β][1,4]dioxin-6-yl)-1-hydroxy-3-(pyrrolidin-1-yl)propan-2-yl)-4-oxo-4-(4-(trifluoromethyl)phenyl)butanamide (2S,3S)-2,3-dihydroxysuccinate]
100 to 1000	CCc1ccc(OCCC(=O)N[C@H](CN2CCCC2)[C@H](O)c2ccc3c(c2)OCCO3)cc1 [Compound 188, N-((1R,2R)-1-(2,3-dihydrobenzo[b][1,4]dioxin-6-yl)-1-hydroxy-3-(pyrrolidin-1-yl)propan-2-yl)-3-(4-ethylphenoxy)propanamide (2R,3R)-2,3-dihydroxysuccinate]
100 to 1000	CCC(=O)c1ccc(OCCC(=O)N[C@H](CN2CCCC2)[C@H](O)c2ccc3c(c2)OCCO3)cc1 [Compound 189, N-((1R,2R)-1-(2,3-dihydrobenzo[b][1,4]dioxin-6-yl)-1-hydroxy-3-(pyrrolidin-1-yl)propan-2-yl)-3-(4-propionylphenoxy)propanamide (2R,3R)-2,3-dihydroxysuccinate]

SMILES	IC50 [nM]
COc1ccc(OCCC(=O)N[C@H](CN2CCCC2)[C@H](O)c2ccc3c(c2)OCCO3)cc1 [Compound 61, N-((1R,2R)-1-(2,3-dihydrobenzo[β][1,4]dioxin-6-yl)-1-hydroxy-3-(pyrrolidin-1-yl)propan-2-yl)-3-(4-methoxyphenoxy)propanamide]	≤ 100

same assay, conditions: Table 3 (title: IC 50 Values); read-out: IC50_uM_Mean

SMILES	IC50 [nM]
O=C(Cc1ccc(OC(F)(F)F)cc1)N[C@H](CN1CCCC1)[C@H](O)c1ccc(Cl)s1 [Compound 492]	3000 to 10000
CCCCCCCC(=O)N[C@H](CN1CC[C@H](F)C1)[C@H](O)c1ccc2c(c1)OCCO2 [Compound 510]	3000 to 10000
CCCCCCCC(=O)N[C@H](CN1CC[C@@H](O)C1)[C@@H](O)c1ccc2c(c1)OCCO2 [Compound 512]	1000 to 3000
CCCCCCCC(=O)N[C@H](CN1CCC[C@@H]1C)C(O)c1ccc2c(c1)OCCO2 (stereo partly drawn) [Compound 527]	1000 to 3000
COc1ccc(OCCC(=O)N[C@H](CN2CCC[C@H]2C)C(O)c2ccc3c(c2)OCCO3)cc1 (stereo partly drawn) [Compound 528]	1000 to 3000
CCCCCCCC(=O)N[C@H](CN1CCC[C@H]1C)C(O)c1ccc2c(c1)OCCO2 (stereo partly drawn) [Compound 530]	3000 to 10000
CCCCCCCC(=O)N[C@H](CN1CCC[C@H]1COC)C(O)c1ccc2c(c1)OCCO2 (stereo partly drawn) [Compound 534]	3000 to 10000
COC[C@@H]1CCCN1C[C@@H](NC(=O)CCOc1ccc(OC)cc1)C(O)c1ccc2c(c1)OCCO2 (stereo partly drawn) [Compound 535]	3000 to 10000
COC[C@H]1CCCN1C[C@@H](NC(=O)CCOc1ccc(OC)cc1)[C@@H](O)c1ccc2c(c1)OCCO2 [Compound 538]	3000 to 10000
COC[C@H]1CCCN1C[C@@H](NC(=O)CCCCCC(=O)c1ccc(OC)cc1)[C@@H](O)c1ccc2c(c1)OCCO2 [Compound 539]	3000 to 10000
CCCCCCCC(=O)N[C@H](CN1CCC[C@@H]1COC)[C@@H](O)c1ccc2c(c1)OCCO2 [Compound 540]	3000 to 10000
COc1ccc(C(=O)CCCCCC(=O)N[C@H](CN2[C@H](C)CC[C@@H]2C)[C@H](O)c2ccc3c(c2)OCCO3)cc1 [Compound 548]	1000 to 3000
CCCCCCCC(=O)N[C@H](CN1[C@H](C)CC[C@@H]1C)[C@H](O)c1ccc2c(c1)OCCO2 [Compound 549]	3000 to 10000
COc1ccc(OCCC(=O)N[C@H](CN2[C@H](C)CC[C@@H]2C)[C@H](O)c2ccc3c(c2)OCCO3)cc1 [Compound 550]	3000 to 10000
COc1ccc(OCCC(=O)N[C@H](CN2CCCC2(C)C)[C@@H](O)c2ccc3c(c2)OCCO3)cc1 [Compound 551]	3000 to 10000
COc1ccc(C(=O)CCCCCC(=O)N[C@H](CN2CCCC2(C)C)[C@@H](O)c2ccc3c(c2)OCCO3)cc1 [Compound 552]	1000 to 3000
CCCCCCCC(=O)N[C@H](CN1CCCC1(C)C)[C@@H](O)c1ccc2c(c1)OCCO2 [Compound 553]	3000 to 10000
O=C(CCCCS(=O)(=O)C1CCCCC1)N[C@H](CN1CCCC1)[C@@H](O)c1ccc2c(c1)OCCO2 [Compound 557]	3000 to 10000
Cc1nccn1C[C@@H](NC(=O)CCCCCC(=O)c1ccc(F)cc1)[C@@H](O)c1ccc2c(c1)OCCO2 [Compound 569]	3000 to 10000
O=C(CCCCCC1CCOCC1)N[C@H](CN1CC[C@@H](F)C1)[C@@H](O)c1cccc(OCc2ccccc2)c1 [Compound 574]	100 to 1000
O=C(CCCCOC1CCOCC1)N[C@H](CN1CC[C@@H](F)C1)[C@@H](O)c1ccc(CCc2ccccc2)cc1 [Compound 575]	100 to 1000
CCCCOc1ccc([C@H](O)[C@@H](CN2CC[C@@H](F)C2)NC(=O)CCCCCCCOC)cc1 [Compound 584]	100 to 1000
CCCCCCCC(=O)N[C@H](CN1CC(OCCC)C1)[C@H](O)c1ccc2c(c1)OCCO2 [Compound 596]	3000 to 10000
COc1ccc(OCC[C@H](O)N[C@H](CN2C(C)CCCC2C)C(O)c2ccc3c(c2)OCCO3)cc1 (stereo partly drawn) [Compound 598]	3000 to 10000
COc1ccc(C(=O)CCCCCC(=O)N[C@H](CN2C(C)CCC[C@H]2C)[C@@H](O)c2ccc3c(c2)OCCO3)cc1 (stereo partly drawn) [Compound 602]	3000 to 10000
O=C(N[C@H](CN1CCCC1)[C@@H](O)c1ccc2c(c1)OCCO2)C1(C(F)(F)F)CCC1 [Compound 614]	3000 to 10000
O=C(CC(F)(F)F)N[C@H](CN1CCCC1)[C@@H](O)c1ccc2c(c1)OCCO2 [Compound 624]	3000 to 10000

Other lines, results leading:

IC50 [nM]	SMILES
100 to 1000	CCNC[C@@H](NC(=O)CCCCCC(=O)c1ccc(OC)cc1)C(O)c1ccc2c(c1)OCCO2 (stereo partly drawn) [Compound 467]
100 to 1000	CCCCCCCC(=O)N[C@H](CN1CC[C@@H](F)C1)[C@H](O)c1ccc2c(c1)OCCO2 [Compound 504]
≤ 100	CCCCCCCC(=O)N[C@H](CN1CC[C@H](O)C1)[C@@H](O)c1ccc2c(c1)OCCO2 [Compound 515]
100 to 1000	CCCCCCCC(=O)N[C@H](CN1CC2CC2C1)[C@@H](O)c1ccc2c(c1)OCCO2 (stereo partly drawn) [Compound 517]
100 to 1000	COc1ccc(C(=O)CCOCCC(=O)N[C@H](CN2CC[C@@H](O)C2)[C@H](O)c2ccc3c(c2)OCCO3)cc1 [Compound 518]
≤ 100	COc1ccc(C(=O)CCCCCC(=O)N[C@H](CN2CCC[C@@H]2C)C(O)c2ccc3c(c2)OCCO3)cc1 (stereo partly drawn) [Compound 525]
100 to 1000	COc1ccc(OCCC(=O)N[C@H](CN2CCC[C@@H]2C)C(O)c2ccc3c(c2)OCCO3)cc1 (stereo partly drawn) [Compound 526]
≤ 100	COc1ccc(C(=O)CCCCCC(=O)N[C@H](CN2CCC[C@H]2C)C(O)c2ccc3c(c2)OCCO3)cc1 (stereo partly drawn) [Compound 529]
≤ 100	COc1ccc(C(=O)CCCCCC(=O)NC(CN2CC[C@@H](F)C2)[C@H](O)c2ccc3c(c2)OCCO3)cc1 (stereo partly drawn) [Compound 531]
100 to 1000	COC[C@@H]1CCCN1C[C@@H](NC(=O)CCCCCC(=O)c1ccc(OC)cc1)C(O)c1ccc2c(c1)OCCO2 (stereo partly drawn) [Compound 533]
≤ 100	COc1ccc(C(=O)CCCCCC(=O)N[C@H](CN2CC3CC3C2)[C@@H](O)c2ccc3c(c2)OCCO3)cc1 (stereo partly drawn) [Compound 537]
100 to 1000	O=C(CCCCCC1CCOCC1)N[C@H](CN1CCCC1)[C@@H](O)c1ccc2c(c1)OCCO2 [Compound 559]
≤ 100	O=C(CCCCCC(=O)c1ccc(F)cc1)N[C@H](CN1CC[C@@H](F)C1)[C@@H](O)c1ccc2c(c1)OCCO2 [Compound 565]
100 to 1000	O=C(CCCCS(=O)(=O)C1CCCCC1)N[C@H](CN1CC[C@@H](F)C1)[C@@H](O)c1ccc(OCc2ccccc2)cc1 [Compound 572]
≤ 100	CCCCOc1ccc([C@H](O)[C@@H](CN2CC[C@H](O)C2)NC(=O)CCCCCCCOC)cc1 [Compound 586]
≤ 100	O=C(CCCCCC(=O)c1ccc(F)cc1)N[C@H](CN1CCCC1)[C@@H](O)c1ccc2c(c1)OCCO2 [Compound 628]

Reference: patent US8309593B2, “2-acylaminopropoanol-type glucosylceramide synthase inhibitors” (Genzyme Corporation, priority 2008, dated 2012)
